These results are taken from patent publication US12509474B2, “Inhibitors of complement factors and uses thereof” (Annexon, Inc., priority 2020, dated 2025).

The experiment concerns the target T1, human C1s protein (Homo sapiens, UniProt P09871).
T1 construct: A104
T1 sequence (P09871 16-688): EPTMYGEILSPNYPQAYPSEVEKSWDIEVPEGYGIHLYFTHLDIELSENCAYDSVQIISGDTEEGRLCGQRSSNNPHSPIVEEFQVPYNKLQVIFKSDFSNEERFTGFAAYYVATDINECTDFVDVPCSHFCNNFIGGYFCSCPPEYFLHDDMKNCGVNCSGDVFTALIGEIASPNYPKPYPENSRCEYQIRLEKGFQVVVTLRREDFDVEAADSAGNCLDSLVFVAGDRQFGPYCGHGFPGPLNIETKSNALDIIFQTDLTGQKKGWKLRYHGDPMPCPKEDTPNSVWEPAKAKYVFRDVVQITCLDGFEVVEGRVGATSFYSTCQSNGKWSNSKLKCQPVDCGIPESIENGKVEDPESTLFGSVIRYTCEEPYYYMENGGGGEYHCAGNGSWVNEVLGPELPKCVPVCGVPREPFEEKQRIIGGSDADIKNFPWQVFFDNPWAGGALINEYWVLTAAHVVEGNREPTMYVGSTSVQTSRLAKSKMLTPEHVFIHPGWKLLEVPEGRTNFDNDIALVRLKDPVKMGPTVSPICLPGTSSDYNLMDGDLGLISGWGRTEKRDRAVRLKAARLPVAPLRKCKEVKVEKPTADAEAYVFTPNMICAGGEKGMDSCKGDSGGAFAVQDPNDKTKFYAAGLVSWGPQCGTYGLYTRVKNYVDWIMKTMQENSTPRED
Briefly: C1s enzymatic assay (hydrolysis of YLGR-Rh110-dPro). It is filed as biochemical. To be noted: substrate YLGR-Rh110-dPro 20 μM, 15 min pre-incubation, 60 min RT, fluorescence, read-out: hC1s pIC50 (converted). The method in brief:
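Fluorogenic assay in which C1s cleaves YLGR-Rh110-dPro (20 μM final) to release fluorescent Rh110, in buffer with 0.1 mg/mL BSA. Enzyme was preincubated 15 min with compound before substrate was added. Compounds were run as 11-point curves, with DMSO as high control and Nafamostat as low control.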

Counter-ions that a name gives are not always drawn.

`Nc1cnnc2cc(-c3cc(B(O)O)cc4ccoc34)ccc12` [Example 100, [7-(4-aminocinnolin-7-yl)-1-benzofuran-5-yl]boronic Acid]: the IC50 was 0.776 nM.

For the compound `Cc1nnc(N)c2ccc(-c3cc(B(O)O)cc4ccoc34)cc12` [Example 104, [7-(1-amino-4-methylphthalazin-6-yl)-1-benzofuran-5-yl]boronic Acid], the IC50 was 0.851 nM.

In the case of `Nc1cnnc2cc(-c3cc(B(O)O)ccc3OC(F)(F)C(F)F)ccc12` [Example 105, [3-(4-aminocinnolin-7-yl)-4-(1,1,2,2-tetrafluoroethoxy)phenyl]boronic Acid], the IC50 is 1.12 nM.

In the case of `Nc1cnnc2cc(-c3cc(B(O)O)ccc3OC(F)C(F)(F)F)ccc12` (stereo not shown) [Example 106, [3-(4-aminocinnolin-7-yl)-4-(1,2,2,2-tetrafluoroethoxy)phenyl]boronic Acid], the IC50 was 1.02 nM.

`COCCOCCOc1ccc(B(O)O)cc1-c1ccc2c(N)cnnc2c1` [Example 107, [3-(4-aminocinnolin-7-yl)-4-[2-(2-methoxyethoxy)ethoxy]phenyl]boronic Acid]: the IC50 is 1 nM.

As to `Cc1cc(OC(F)F)c(-c2ccc3c(N)cnnc3c2)cc1B(O)O` [Example 108, [5-(4-aminocinnolin-7-yl)-4-(difluoromethoxy)-2-methylphenyl]boronic Acid], the IC50 was 1.86 nM.

Regarding `COc1ccc(B(O)O)cc1-c1ccc2c(N)ccnc2c1` [Example 109, [3-(4-aminoquinolin-7-yl)-4-methoxyphenyl]boronic Acid], the IC50 is 871 nM.

For `Nc1cnnc2cc(-c3cc(B(O)O)ccc3OCCC3CCCO3)ccc12` (stereo not shown) [Example 110, [3-(4-aminocinnolin-7-yl)-4-[2-(oxolan-2-yl)ethoxy]phenyl]boronic Acid], the IC50 was 0.661 nM.

As to `COc1ccc(B(O)O)cc1-c1ccc2c(N)ncc(C)c2c1` [Example 111, [3-(1-amino-4-methylisoquinolin-6-yl)-4-methoxyphenyl]boronic Acid], the IC50 was 17.4 nM.

For `Nc1cnnc2cc(-c3cc(B(O)O)ccc3OCCC3CCOC3)ccc12` (stereo not shown) [Example 112, [3-(4-aminocinnolin-7-yl)-4-[2-(oxolan-3-yl)ethoxy]phenyl]boronic Acid], the IC50 is 0.776 nM.

Regarding `CC1(C)COC(COc2ccc(B(O)O)cc2-c2ccc3c(N)cnnc3c2)C1` (stereo not shown) [Example 114, [3-(4-aminocinnolin-7-yl)-4-[(4,4-dimethyloxolane-2-yl)methoxy]phenyl]boronic Acid], the IC50 is 1.05 nM.

For `Nc1cnnc2cc(-c3cc(B(O)O)ccc3OCCC3CC3)ccc12` [Example 115, [3-(4-aminocinnolin-7-yl)-4-(2-cyclopropylethoxy)phenyl]boronic Acid], the IC50 is 0.794 nM.

For `COc1cc(C#N)c(B(O)O)cc1-c1ccc2c(N)nnc(C)c2c1` [Example 116, [5-(1-amino-4-methylphthalazin-6-yl)-2-cyano-4-methoxyphenyl]boronic Acid], the IC50 was 2.24 nM.

For the compound `Nc1cnnc2cc(-c3cc(B(O)O)ccc3OC3CCC3)ccc12` [Example 117, [3-(4-aminocinnolin-7-yl)-4-cyclobutoxyphenyl]boronic Acid], the IC50 was 0.708 nM.

For `Nc1cnnc2cc(-c3cc(B(O)O)ccc3OCC(F)(F)F)ccc12` [Example 118, [3-(4-aminocinnolin-7-yl)-4-(2,2,2-trifluoroethoxy)phenyl]boronic Acid Formic Acid Salt], the IC50 was 1.1 nM.

With `Cc1nc2c(-c3ccc4c(N)cnnc4c3)cc(B(O)O)cc2o1` [Example 119, [4-(4-aminocinnolin-7-yl)-2-methyl-1,3-benzoxazol-6-yl]boronic Acid Formic Acid Salt], the IC50 was 0.646 nM.

As for `CC(C)NC(=O)c1ccc(B(O)O)cc1-c1ccc2c(N)cnnc2c1` [Example 120, [3-(4-aminocinnolin-7-yl)-4-(propan-2-ylcarbamoyl)phenyl]boronic Acid Formic Acid Salt], the IC50 was 11.2 nM.

In the case of `C[C@@H]1C[C@@H](Oc2ccc(B(O)O)cc2-c2ccc3c(N)cnnc3c2)C[C@H](C)O1` [Example 121, [3-(4-aminocinnolin-7-yl)-4-{[(2R,4S,6S)-2,6-dimethyloxan-4-yl]oxy}phenyl]boronic Acid], the IC50 is 4.9 nM.

With `Cc1nc2cc(B(O)O)cc(-c3ccc4c(N)cnnc4c3)c2o1` [Example 122, [7-(4-aminocinnolin-7-yl)-2-methyl-1,3-benzoxazol-5-yl]boronic Acid Formic Acid Salt], the IC50 was 1.17 nM.

Regarding `C[C@@H]1C[C@H](Oc2ccc(B(O)O)cc2-c2ccc3c(N)cnnc3c2)C[C@H](C)O1` [Example 123, [3-(4-aminocinnolin-7-yl)-4-{[(2R,4R,6S)-2,6-dimethyloxan-4-yl]oxy}phenyl]boronic Acid Formic Acid Salt], the IC50 was 0.851 nM.

With `Nc1cnnc2cc(-c3cc(B(O)O)ccc3C(=O)N3CCCC3)ccc12` [Example 124, [3-(4-aminocinnolin-7-yl)-4-(pyrrolidine-1-carbonyl)phenyl]boronic Acid], the IC50 was 7.59 nM.

With `Cc1nc2c(-c3ccc4c(N)nnc(C)c4c3)cc(B(O)O)cc2o1` [Example 125, [4-(1-amino-4-methylphthalazin-6-yl)-2-methyl-1,3-benzoxazol-6-yl]boronic Acid Formic Acid Salt], the IC50 is 3.24 nM.

For the compound `Nc1cnnc2cc(-c3cc(B(O)O)ccc3OC3CCC(=O)NC3)ccc12` (stereo not shown) [Example 126, [3-(4-aminocinnolin-7-yl)-4-[(6-oxopiperidin-3-yl)oxy]phenyl]boronic Acid], the IC50 was 6.03 nM.

Take `Nc1cnnc2cc(-c3ccc(CC(=O)O)c(B(O)O)c3)ccc12` [Example 127, 2-[4-(4-aminocinnolin-7-yl)-2-(dihydroxyboranyl)phenyl]acetic Acid]: the IC50 was 13.2 nM.

Regarding `Nc1cnnc2cc(-c3cc(B(O)O)cc4c3OC(F)(F)O4)ccc12` [Example 128, [7-(4-aminocinnolin-7-yl)-2,2-difluoro-2H-1,3-benzodioxol-5-yl]boronic Acid], the IC50 was 0.55 nM.

For `COc1ccc(B(O)O)cc1-c1ccc2nccc(N)c2c1` [Example 129, [3-(4-aminoquinolin-6-yl)-4-methoxyphenyl]boronic Acid Formic Acid Salt], the IC50 is 6920 nM.

Regarding `COc1ccc(B(O)O)cc1-c1cnc2c(N)nccc2c1` [Example 130, [3-(8-amino-1,7-naphthyridin-3-yl)-4-methoxyphenyl]boronic Acid Formic Acid Salt], the IC50 is 67.6 nM.

Turning to `Cc1nnc(N)c2ccc(-c3cc(B(O)O)ccc3OC(F)F)cc12` [Example 131, [3-(1-amino-4-methylphthalazin-6-yl)-4-(difluoromethoxy)phenyl]boronic Acid Formic Acid Salt], the IC50 was 0.617 nM.

For `COc1cc(C)c(B(O)O)cc1-c1ccc2c(N)cnnc2c1` [Example 134, [5-(4-aminocinnolin-7-yl)-4-methoxy-2-methylphenyl]boronic Acid Formic Acid Salt], the IC50 is 2.09 nM.

Regarding `COCc1cc(OC)c(-c2ccc3c(N)cnnc3c2)cc1B(O)O` [Example 137, [5-(4-aminocinnolin-7-yl)-4-methoxy-2-(methoxymethyl)phenyl]boronic Acid Formic Acid Salt], the IC50 is 2.82 nM.

In the case of `Nc1cnnc2cc(-c3cc(B(O)O)cc4c3OCC4)ccc12` [Example 138, [7-(4-aminocinnolin-7-yl)-2,3-dihydro-1-benzofuran-5-yl]boronic Acid Formic Acid Salt], the IC50 was 1.62 nM.

`COc1ccc(B(O)O)cc1-c1cnc2cnccc2c1` [Example 139, [4-methoxy-3-(1,7-naphthyridin-3-yl)phenyl]boronic Acid]: the IC50 was > 25100 nM.

Consider `Nc1cnnc2cc(-c3cc(B(O)O)ccc3OC3CC(F)(F)C3)ccc12` [Example 142, [3-(4-aminocinnolin-7-yl)-4-(3,3-difluorocyclobutoxy)phenyl]boronic Acid Formic Acid Salt], for which the IC50 is 1.17 nM.

Consider `Nc1cnnc2cc(-c3cc(B(O)O)ccc3N3CCOCC3)ccc12` [Example 143, [3-(4-aminocinnolin-7-yl)-4-(morpholin-4-yl)phenyl]boronic Acid Formic Acid Salt], for which the IC50 was 57.5 nM.

For `COc1ccc(B(O)O)cc1-c1cnc2c(N)cnnc2c1` [Example 144, (3-{4-aminopyrido[3,2-C]pyridazin-7-yl}-4-methoxyphenyl)boronic Acid], the IC50 was 66.1 nM.

On to `Nc1cnnc2cc(-c3cc(B(O)O)cc4c3OCCC4)ccc12` [Example 145, [8-(4-aminocinnolin-7-yl)-3,4-dihydro-2H-chromen-6-yl]boronic Acid Formic Acid Salt], for which the IC50 was 3.09 nM.

As to `Cn1nc(C2CC2)c2c(B(O)O)cc(-c3ccc4c(N)cnnc4c3)cc21` [Example 146, [6-(4-aminocinnolin-7-yl)-3-cyclopropyl-1-methyl-1H-indazol-4-yl]boronic Acid], the IC50 was 5.25 nM.
